Entries after “also recorded” stand apart in the source; their conditions may differ.
Tests used:
[1] = target: T1, RyR (RyR2-expressing N2A cell line) (Mus musculus, UniProt E9Q401); test: RyR-evoked (caffeine) calcium response in N2A cells, 2-photon fura-2 imaging; assay type: cell-based; settings: for Ca^2+ Inc (Ca^2+ increase over baseline): caffeine-stimulated, compounds tested at 10 μM; for effect on caffeine-stimulated Ca^2+ release compared with dantrolene: 10 μM
T1 construct: tested using a RyR2-expressing N2A cell line; host or cells: N2a (Neuro-2a) cells
T1 sequence (E9Q401 whole entry): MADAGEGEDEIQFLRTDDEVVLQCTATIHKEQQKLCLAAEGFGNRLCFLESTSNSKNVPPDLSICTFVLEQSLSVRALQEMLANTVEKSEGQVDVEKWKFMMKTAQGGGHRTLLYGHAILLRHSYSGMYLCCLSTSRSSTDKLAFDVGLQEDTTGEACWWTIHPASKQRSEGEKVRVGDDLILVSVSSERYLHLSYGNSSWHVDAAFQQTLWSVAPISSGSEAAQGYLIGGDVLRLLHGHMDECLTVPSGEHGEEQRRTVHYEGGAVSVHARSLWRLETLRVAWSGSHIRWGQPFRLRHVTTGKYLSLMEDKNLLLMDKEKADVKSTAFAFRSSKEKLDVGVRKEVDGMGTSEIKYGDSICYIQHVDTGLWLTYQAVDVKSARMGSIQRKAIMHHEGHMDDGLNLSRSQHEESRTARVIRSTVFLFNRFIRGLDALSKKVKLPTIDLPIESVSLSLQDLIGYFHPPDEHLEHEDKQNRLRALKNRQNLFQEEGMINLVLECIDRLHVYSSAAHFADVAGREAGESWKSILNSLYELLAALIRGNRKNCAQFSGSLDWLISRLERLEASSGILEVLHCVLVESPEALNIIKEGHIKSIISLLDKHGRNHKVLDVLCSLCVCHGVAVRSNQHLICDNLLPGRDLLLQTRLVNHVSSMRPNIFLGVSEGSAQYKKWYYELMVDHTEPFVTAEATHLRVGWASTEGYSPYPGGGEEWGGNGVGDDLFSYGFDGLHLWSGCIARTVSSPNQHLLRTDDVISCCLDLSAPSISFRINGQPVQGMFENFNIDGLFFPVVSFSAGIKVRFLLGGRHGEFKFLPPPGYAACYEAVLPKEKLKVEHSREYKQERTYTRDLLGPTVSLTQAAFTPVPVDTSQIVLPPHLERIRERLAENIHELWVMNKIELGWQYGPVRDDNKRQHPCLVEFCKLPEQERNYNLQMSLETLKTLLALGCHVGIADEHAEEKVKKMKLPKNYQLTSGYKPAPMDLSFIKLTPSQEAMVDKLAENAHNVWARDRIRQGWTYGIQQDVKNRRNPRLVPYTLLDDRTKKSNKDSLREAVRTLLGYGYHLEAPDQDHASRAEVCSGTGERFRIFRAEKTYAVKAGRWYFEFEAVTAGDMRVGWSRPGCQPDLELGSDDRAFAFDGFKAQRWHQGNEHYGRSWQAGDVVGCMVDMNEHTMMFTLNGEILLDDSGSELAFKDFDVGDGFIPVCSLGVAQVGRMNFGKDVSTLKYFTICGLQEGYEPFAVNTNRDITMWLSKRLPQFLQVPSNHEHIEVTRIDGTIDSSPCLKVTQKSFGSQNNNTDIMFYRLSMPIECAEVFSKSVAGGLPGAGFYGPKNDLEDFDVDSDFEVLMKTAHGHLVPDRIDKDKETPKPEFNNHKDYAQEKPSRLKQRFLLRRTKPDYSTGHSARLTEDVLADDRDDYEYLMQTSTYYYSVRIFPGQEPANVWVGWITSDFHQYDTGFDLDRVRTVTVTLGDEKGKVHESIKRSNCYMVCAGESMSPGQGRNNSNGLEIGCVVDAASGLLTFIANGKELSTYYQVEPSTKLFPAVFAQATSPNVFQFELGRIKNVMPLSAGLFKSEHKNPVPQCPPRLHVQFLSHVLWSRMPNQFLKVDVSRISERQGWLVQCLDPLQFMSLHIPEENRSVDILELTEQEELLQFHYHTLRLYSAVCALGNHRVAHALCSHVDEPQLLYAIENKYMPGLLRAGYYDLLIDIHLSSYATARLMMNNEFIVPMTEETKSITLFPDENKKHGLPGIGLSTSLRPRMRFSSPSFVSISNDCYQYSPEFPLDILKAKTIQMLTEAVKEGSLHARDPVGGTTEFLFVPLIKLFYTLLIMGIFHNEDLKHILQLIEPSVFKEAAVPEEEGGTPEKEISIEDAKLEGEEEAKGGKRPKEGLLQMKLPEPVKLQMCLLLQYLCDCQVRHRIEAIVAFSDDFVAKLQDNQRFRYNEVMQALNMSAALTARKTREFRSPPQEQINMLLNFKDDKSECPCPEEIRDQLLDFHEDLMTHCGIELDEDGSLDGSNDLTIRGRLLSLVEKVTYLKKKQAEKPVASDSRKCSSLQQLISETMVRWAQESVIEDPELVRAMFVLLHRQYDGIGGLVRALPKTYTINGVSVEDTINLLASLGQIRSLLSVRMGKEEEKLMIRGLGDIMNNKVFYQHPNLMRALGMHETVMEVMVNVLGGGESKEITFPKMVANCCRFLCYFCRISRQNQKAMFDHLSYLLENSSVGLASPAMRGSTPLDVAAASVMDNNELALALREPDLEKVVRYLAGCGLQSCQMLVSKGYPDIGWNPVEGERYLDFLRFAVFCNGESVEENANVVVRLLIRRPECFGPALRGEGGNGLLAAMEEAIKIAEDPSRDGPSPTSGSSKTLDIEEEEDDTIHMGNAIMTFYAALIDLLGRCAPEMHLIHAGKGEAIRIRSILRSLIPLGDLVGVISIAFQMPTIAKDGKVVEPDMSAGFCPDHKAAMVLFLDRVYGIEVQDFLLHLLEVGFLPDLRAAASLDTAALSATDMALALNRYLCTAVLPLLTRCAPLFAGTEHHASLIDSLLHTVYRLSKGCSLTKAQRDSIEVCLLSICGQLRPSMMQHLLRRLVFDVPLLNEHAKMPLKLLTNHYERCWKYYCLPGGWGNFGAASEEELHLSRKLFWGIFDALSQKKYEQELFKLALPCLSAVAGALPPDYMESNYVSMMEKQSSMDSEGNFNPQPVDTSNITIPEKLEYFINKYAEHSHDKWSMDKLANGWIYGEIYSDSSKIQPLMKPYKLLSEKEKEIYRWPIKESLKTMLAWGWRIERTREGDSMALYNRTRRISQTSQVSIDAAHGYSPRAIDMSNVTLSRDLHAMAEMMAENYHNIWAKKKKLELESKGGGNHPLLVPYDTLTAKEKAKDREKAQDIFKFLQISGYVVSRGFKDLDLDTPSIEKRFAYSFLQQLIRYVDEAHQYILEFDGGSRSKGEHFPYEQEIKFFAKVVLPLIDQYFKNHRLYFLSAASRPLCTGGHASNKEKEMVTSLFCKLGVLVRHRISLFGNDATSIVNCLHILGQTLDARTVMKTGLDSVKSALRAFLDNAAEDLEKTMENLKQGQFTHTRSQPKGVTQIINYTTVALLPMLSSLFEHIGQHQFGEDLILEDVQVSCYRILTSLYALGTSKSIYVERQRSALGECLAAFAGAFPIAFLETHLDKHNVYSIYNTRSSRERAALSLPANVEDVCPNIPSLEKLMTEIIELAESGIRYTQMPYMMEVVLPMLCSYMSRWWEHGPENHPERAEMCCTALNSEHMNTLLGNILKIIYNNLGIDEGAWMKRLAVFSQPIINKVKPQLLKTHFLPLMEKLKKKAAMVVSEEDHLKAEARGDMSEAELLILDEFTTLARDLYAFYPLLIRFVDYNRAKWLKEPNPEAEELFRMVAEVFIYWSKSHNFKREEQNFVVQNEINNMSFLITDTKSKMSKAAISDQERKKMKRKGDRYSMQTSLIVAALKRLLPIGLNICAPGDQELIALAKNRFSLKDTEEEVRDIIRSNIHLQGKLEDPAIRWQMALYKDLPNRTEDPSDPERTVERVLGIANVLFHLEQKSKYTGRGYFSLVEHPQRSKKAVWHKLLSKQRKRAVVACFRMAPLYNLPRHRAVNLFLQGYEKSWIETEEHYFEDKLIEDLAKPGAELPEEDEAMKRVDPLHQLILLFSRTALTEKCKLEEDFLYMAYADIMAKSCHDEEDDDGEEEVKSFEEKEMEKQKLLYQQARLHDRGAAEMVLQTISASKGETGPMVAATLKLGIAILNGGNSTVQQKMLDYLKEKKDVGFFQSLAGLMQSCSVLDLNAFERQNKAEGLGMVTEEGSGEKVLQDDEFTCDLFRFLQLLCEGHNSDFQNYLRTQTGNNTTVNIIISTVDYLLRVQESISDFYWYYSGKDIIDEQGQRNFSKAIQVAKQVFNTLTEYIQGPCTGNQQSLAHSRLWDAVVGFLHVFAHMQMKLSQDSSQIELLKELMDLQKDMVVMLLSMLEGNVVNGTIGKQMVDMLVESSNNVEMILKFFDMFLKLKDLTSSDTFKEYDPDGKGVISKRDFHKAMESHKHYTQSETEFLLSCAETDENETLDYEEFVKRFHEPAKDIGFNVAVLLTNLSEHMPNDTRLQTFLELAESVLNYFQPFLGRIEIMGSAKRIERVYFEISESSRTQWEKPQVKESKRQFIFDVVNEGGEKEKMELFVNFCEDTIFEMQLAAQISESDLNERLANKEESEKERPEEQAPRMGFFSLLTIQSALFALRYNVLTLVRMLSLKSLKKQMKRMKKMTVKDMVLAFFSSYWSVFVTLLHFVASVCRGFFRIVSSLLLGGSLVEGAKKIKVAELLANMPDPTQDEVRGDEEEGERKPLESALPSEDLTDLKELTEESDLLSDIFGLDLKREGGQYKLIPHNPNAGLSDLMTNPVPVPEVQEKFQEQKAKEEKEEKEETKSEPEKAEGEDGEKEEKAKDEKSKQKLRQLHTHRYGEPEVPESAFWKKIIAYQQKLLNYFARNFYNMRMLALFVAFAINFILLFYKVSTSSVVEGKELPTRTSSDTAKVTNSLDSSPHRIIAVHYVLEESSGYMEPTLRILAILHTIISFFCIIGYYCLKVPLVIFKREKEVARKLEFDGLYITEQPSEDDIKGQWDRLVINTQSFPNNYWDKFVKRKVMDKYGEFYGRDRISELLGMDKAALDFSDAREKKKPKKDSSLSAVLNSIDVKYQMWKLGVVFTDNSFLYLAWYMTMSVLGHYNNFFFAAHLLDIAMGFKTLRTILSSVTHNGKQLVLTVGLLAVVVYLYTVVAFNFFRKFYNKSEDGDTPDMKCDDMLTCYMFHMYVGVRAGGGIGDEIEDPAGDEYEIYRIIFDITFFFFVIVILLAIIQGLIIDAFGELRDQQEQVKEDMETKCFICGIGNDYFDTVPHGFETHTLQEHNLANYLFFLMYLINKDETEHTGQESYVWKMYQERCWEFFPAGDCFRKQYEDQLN
Protocol: All incubations and washes were at 37° C. with 10% CO2.
Glass cover slips with fura 2-AM-filled N2a cells were placed in a submersion chamber on the stage of an upright Olympus BX51 microscope which is coupled to a 2-photon laser imaging system. […] Ca^2+ imaging of individual cells was accomplished using a custom-made video-rate 2-photon imaging system. Laser excitation was provided by 100 fs pulses at 780 nm (80 MHz) from a Ti:sapphire laser (Mai Tai Broadband, Spectra-Physics). The laser beam was scanned by a resonant galvanometer (General Scanning Lumonics), allowing rapid (7.9 kHz) bidirectional scanning in the x-axis, and by a conventional linear galvanometer in the y-axis, to provide a full-frame scan rate of 30 frames/s. The laser beam was focused onto the cells through an Olympus 40× water-immersion objective (numerical aperture 0.8). Emitted fluorescence light was detected by a wide-field photomultiplier (Electron Tubes) to derive a video signal that was captured and analyzed by Video Savant 5.0 software (10 Industries). Further analysis of background-corrected images was performed using MetaMorph software. For clarity, results are expressed as inverse ratios so that increases in [Ca^2+ correspond to increasing ratios. The % change is calculated as [(F0/ΔF)−1]*100 where F0 is the average resting fluorescence at baseline and ΔF is the decrease of fluorescence reflecting Ca^2+ release. Differences between treatment groups were assessed using two-way ANOVA and Scheffe post hoc analysis for significance (p<0.05). Somatic Ca^2+ responses in all cells in the field of view were analyzed (n=8-20), with the nucleus region excluded. All compounds were tested in triplicate.

Log P (Table 1) = assay type: physicochemical
[2] = Sub-chronic in vivo treatment of 3×Tg-AD mice, heart weight and body weight; design: species or system mouse; settings: 10 mg/kg ip, 4 weeks
Protocol: Ca^2+ signaling and electrophysiological properties of CA1 pyramidal neurons were studied in hippocampal brain slices according to the protocols disclosed in Example 1. Briefly, 3×Tg-AD mice were treated with either saline (0.9%), CK013 or CK017 for four weeks (10 mg/kg; ip), and then acute hippocampal brain slice preparations were made for the purposes of performing whole cell patch clamp recordings and 2-photon calcium imaging in CA1 pyramidal neurons. The objective was to determine if our compounds could restore normal RyR-mediated calcium signaling in the AD mice and maintain normal membrane physiology.
Also, passive membrane properties such as resting membrane potential and membrane input resistance were not affected by these compounds. […] Additionally, there were no statistically significant differences in the ratio of heart weight:body weight among the treatment groups (Table 4; p>0.05), nor were there differences in absolute body weights or heart weights among the groups (data not shown; […]).

RyR [3] = test: RyR-evoked calcium response in CA1 pyramidal neurons of hippocampal brain slices, acute incubation; assay type: cell-based, mouse; settings: 3×Tg-AD hippocampal slices, caffeine, 10 μM, 1 hour incubation
Protocol: 3×Tg-AD, TgCRND8, PS1/APP, and nontransgenic (NonTg) J29/C57BL6 control mice were bred in-house. Adult male and female mice 3-5 months old were used. Animals were cared for and used in accordance with protocols approved by the Rosalind Franklin University of Medicine and Science Animal Care and Use Committee. […] Whole-cell patch-clamp recordings were conducted at room temperature (23° C.) in continuously superfused aCSF (1.5-2.0 mL/min). […] Hippocampal CA1 pyramidal neurons were identified visually via infrared differential interference contrast (IR-DIC) optics, and electrophysiologically by their passive membrane properties and spike frequency accommodation. […] Minianalysis 6.0.7 (Synaptosoft, Fort Lee, N.J.) was used to detect and measure spontaneous excitatory postsynaptic potential (sEPSP) events with a minimal amplitude of 0.2 mV and minimal area of 3 mV*msec.
(§1) Voltage-gated Ca^2+ channel (VGCC) responses were elicited by depolarization via current injected through the patch pipette with the current level adjusted to elicit a train of 8-10 spikes.

RyR [4] = test: Sub-chronic in vivo treatment of 3×Tg-AD mice, RyR-evoked calcium responses in CA1 neurons; design: species or system mouse; settings: 10 mg/kg ip, 4 weeks, 10 mM caffeine on acute slices
Protocol: 3×Tg-AD, TgCRND8, PS1/APP, and nontransgenic (NonTg) J29/C57BL6 control mice were bred in-house. Adult male and female mice 3-5 months old were used. Animals were cared for and used in accordance with protocols approved by the Rosalind Franklin University of Medicine and Science Animal Care and Use Committee. Hippocampal brain slices (300 μm) were prepared as previously described (Briggs et al., Neurobiol. Aging, 2013, 34:1632-1643). Mice were anesthetized with halothane, decapitated, and the brain removed into ice-cold sucrose cutting solution (200 mM sucrose, 1.5 mM KCl, 0.5 mM CaCl2, 4.0 mM MgCl2, 1.0 mM KH2PO4, 25 mM NaHCO3, 10 mM Na-ascorbate, and 20 mM dextrose, equilibrated with 95% O2/5% CO2). Horizontal hippocampal slices were prepared in a Camden Instruments vibratome with the chamber filled with ice-cold sucrose cutting solution and then transferred to and maintained in standard artificial cerebrospinal fluid (aCSF; 130 mM NaCl, 2.5 mM KCl, 2.0 mM CaCl2, 1.2 mM MgSO4, 1.25 mM NaH2PO4, 25 mM NaHCO3, and 10 mM dextrose [305-310 mOsm], equilibrated with 95% O2/5% CO2, pH 7.3-7.4) at 32° C. for at least 1 hour before use. […] Membrane potentials were obtained in current-clamp mode, acquired at 10 kHz with a Digidata 1322 A-D converter and Multiclamp 700B amplifier, and recorded and analyzed using pClamp 10.2 (Molecular Devices). […]

[5] = Brain/plasma ratio, brain levels in vivo; settings: for Kp: brain and plasma
[6] = Aqueous solubility at pH 7.4; assay type: physicochemical
TG-CRND8 AD mice = test: Chronic dantrolene in TgCRND8 AD mice, CP13 phospho-tau immunostaining; assay type: in vivo, mouse; settings: 10 mg/kg IP, 4 weeks
Protocol: Mice are deeply anesthetized with urethane, the thoracic cavity opened, and cannula inserted into the left ventricle of the heart, and a small hole cut into the right atrium. Ice cold saline (3 mL) and then 4% paraformaldehyde (5 mL), or 4% paraformaldehyde/1% glutaraldehyde are perfused through the circulatory system. Following this, the mice are decapitated with sharp scissors and the brain prepared for staining or microscopy.

[7] = chronic oral treatment (10+ months); cited from earlier work
[8] = system: AD mouse models (3×Tg-AD and PS1/APP); test: 4-week dantrolene treatment in AD mouse models (3×Tg-AD, APP/PS1): calcium, amyloid, synaptic integrity, RyR2 expression; assay type: in vivo
Protocol: 3×Tg-AD, TgCRND8, PS1/APP, and nontransgenic (NonTg) J29/C57BL6 control mice were bred in-house. Adult male and female mice 3-5 months old were used. Animals were cared for and used in accordance with protocols approved by the Rosalind Franklin University of Medicine and Science Animal Care and Use Committee. Hippocampal brain slices (300 μm) were prepared as previously described (Briggs et al., Neurobiol. Aging, 2013, 34:1632-1643). Mice were anesthetized with halothane, decapitated, and the brain removed into ice-cold sucrose cutting solution (200 mM sucrose, 1.5 mM KCl, 0.5 mM CaCl2, 4.0 mM MgCl2, 1.0 mM KH2PO4, 25 mM NaHCO3, 10 mM Na-ascorbate, and 20 mM dextrose, equilibrated with 95% O2/5% CO2). Horizontal hippocampal slices were prepared in a Camden Instruments vibratome with the chamber filled with ice-cold sucrose cutting solution and then transferred to and maintained in standard artificial cerebrospinal fluid (aCSF; 130 mM NaCl, 2.5 mM KCl, 2.0 mM CaCl2, 1.2 mM MgSO4, 1.25 mM NaH2PO4, 25 mM NaHCO3, and 10 mM dextrose [305-310 mOsm], equilibrated with 95% O2/5% CO2, pH 7.3-7.4) at 32° C. for at least 1 hour before use. Whole-cell patch-clamp recordings were conducted at room temperature (23° C.) in continuously superfused aCSF (1.5-2.0 mL/min). Patch pipettes (5-7 MO) were filled with intracellular solution (135 mM K-gluconate, 2.0 mM MgCl2, 4.0 mM Na2-ATP, 0.4 mM Na-GTP, 10 mM Na-phosphocreatine, 10 mM HEPES adjusted to pH 7.3 with KOH) plus 50 μM bis-fura-2 hexapotassium (Life Technologies) as fluorescent Ca^2+ sensor. Hippocampal CA1 pyramidal neurons were identified visually via infrared differential interference contrast (IR-DIC) optics, and electrophysiologically by their passive membrane properties and spike frequency accommodation. Membrane potentials were obtained in current-clamp mode, acquired at 10 kHz with a Digidata 1322 A-D converter and Multiclamp 700B amplifier, and recorded and analyzed using pClamp 10.2 (Molecular Devices). Minianalysis 6.0.7 (Synaptosoft, Fort Lee, N.J.) was used to detect and measure spontaneous excitatory postsynaptic potential (sEPSP) events with a minimal amplitude of 0.2 mV and minimal area of 3 mV*msec. See Chakroborty et al., 2012, J. Neurosci. 32(24):8341-53 for further experimental details.
as §1

Row | SMILES | Ca^2+ Inc (Ca^2+ increase over baseline) [1] | logP (Log P (Table 1)) | effect on caffeine-stimulated Ca^2+ release compared with dantrolene [1] | also measured
1 | CN1CCN(C(=O)N/N=C/c2ccc(-c3ccc([N+](=O)[O-])cc3Cl)o2)CC1 [RD10] | 4.25 fold | 3.4 | – | –
2 | O=C(Cc1ccccc1)N/N=C/c1ccc(-c2ccccc2)o1 [CK013] | – | – | – | Ratio of heart weight:body weight [2]: 4.06 × 10^−3; RyR-evoked calcium response in AD neurons (RyR [3]): normalized aberrant RyR-evoked calcium signals; also recorded: significantly reduced to within physiological levels; RyR-evoked calcium responses after chronic treatment (RyR [4]): not different from the NonTg control responses; also recorded: not different from the control NonTg saline treated mice
3 | O=C1CN(/N=C/c2ccc(-c3ccccc3)o2)C(=O)N1 [RD05] | 1.43 fold | 1.8 | block calcium release to a greater degree than dantrolene; also recorded: comparable or superior effects on Ca^2+ release | CNS penetration compared with dantrolene [5]: markedly improved; brain levels relative to those of dantrolene [5]: > 50 times; Kp [5]: 0.5; solubility compared with dantrolene [6]: markedly improved solubility
4 | O=C1CN(/N=C/c2ccc(-c3ccc([N+](=O)[O-])cc3)o2)C(O)=N1 [dantrolene, 1-{[5-(4-nitrophenyl)-2-furyl]methylideneamino} imidazolidine-2,4-dione] | 1.96 fold | – | – | reduction of the evoked RyR-calcium response ([1]; caffeine (10 mM), pre-incubated 30 minutes): over 60%; phospho-tau (CP13) staining, dentate gyrus (TG-CRND8 AD mice): reduces phosphorylated tau; also recorded: significantly reduced; amyloid pathology [7]: increase amyloid pathology; soluble and insoluble Aβ deposition ([8]; 3×Tg-AD and PS1/APP, 4-week treatment, 5-10 mg/kg): significantly reduced; synaptic integrity (synaptophysin/PSD-95 colocalization), synaptic transmission properties ([8]; AD mice, 4-week treatment): restored synaptic transmission properties and synaptic integrity; ER calcium responses (soma, dendrites, dendritic spines) ([8]; AD mice, 4-week treatment, 5-10 mg/kg): returned the exaggerated ER-Ca^2+ release in dendritic spines to NonTg levels; also recorded: normalizes this calcium response; RyR2 mRNA expression levels, hippocampus ([8]; AD-Tg mice, 10 mg/kg, 4 weeks): normalized expression levels of RyR2; reduction of beta amyloid levels (4G8 immunostaining) ([8]; hippocampus and cortex, 4-week treatment): 45%
5 | CC(=O)N/N=C/c1ccc(-c2cccc([N+](=O)[O-])c2)o1 [RD09] | 1.06 fold | 2.5 | block calcium release to a greater degree than dantrolene | –
6 | O=C(N/N=C/c1ccc(-c2cccc(Cl)c2Cl)o1)c1ccccn1 [RD91] | >6 fold | 4.4 | – | –
7 | O=C(N/N=C/c1ccc(-c2ccc(Br)cc2)o1)c1ccc([N+](=O)[O-])cc1 [RD77] | >6 fold | 5 | – | –
8 | O=C(N/N=C/c1ccc(-c2ccc(Cl)cc2)o1)N/N=C/c1ccc(-c2ccc(Cl)cc2)o1 [CK017] | – | – | – | Ratio of heart weight:body weight [2]: 3.6 × 10^−3; RyR-evoked calcium response in AD neurons (RyR [3]): normalized aberrant RyR-evoked calcium signals; also recorded: significantly reduced to within physiological levels; RyR-evoked calcium responses after chronic treatment (RyR [4]): not different from the NonTg control responses; also recorded: not different from the control NonTg saline treated mice
9 | O=C(N/N=C/c1ccc(-c2cccc([N+](=O)[O-])c2)o1)c1ccccn1 [RD11] | 1.38 fold | 3 | block calcium release to a greater degree than dantrolene | –
10 | O=C(N/N=C/c1ccc(-c2ccc([N+](=O)[O-])cc2)o1)c1ccc(Cl)cc1Cl [RD83] | >6 fold | 5.5 | – | –
11 | Cc1c(-c2ccc(/C=N/NC(N)=O)o2)ccc([N+](=O)[O-])c1C [RD14] | 2.38 fold | 3.2 | comparable to dantrolene's effect; also recorded: comparable or superior effects on Ca^2+ release | CNS penetration compared with dantrolene [5]: markedly improved; Kp [5]: 1.6; solubility compared with dantrolene [6]: markedly improved solubility
12 | O=C(N/N=C/c1ccc(-c2ccc([N+](=O)[O-])cc2Cl)o1)Nc1ccccc1 [RD54] | >6 fold | 5.1 | – | –

From patent US10011578B2, “Compounds for stabilizing ryanodine receptors from aberrant levels of calcium release” (Rosalind Franklin University of Medicine and Science, priority 2013, dated 2018)
